Laboratory results taken from patent US8618143B1, “Selective neuronal nitric oxide synthase inhibitors with azole substituents” (Northwestern University, priority 2010, dated 2013).

Experiments:
[1] = pKa of the free azole ring of the side chain; cited from earlier work
nNOS = nNOS (Rattus norvegicus, UniProt P29476); assay: NOS inhibition assay (literature protocols), neuronal isoform; assay type: biochemical; conditions: for potency (in words): comment on Table 2
Source text: Compounds 3a (not shown, below), 4a, 3c, and 4c were synthesized compounds for purpose of illustration, and 4a, 3c and 4c have been tested using literature protocols. (See, e.g., example 51 of the aforementioned incorporated '790 patent, example 12 of co-pending application Ser. No. 13/250,554 filed Sep. 30, 2011, also incorporated herein by reference in its entirety and, respectively, the references cited therein.) The activities are shown in Table 2.

iNOS = iNOS (Mus musculus, UniProt P29477); assay: NOS inhibition assay (literature protocols), inducible isoform; assay type: biochemical; conditions: for selectivity i/n: ratio KI iNOS / KI nNOS
eNOS = eNOS (Bos taurus, UniProt P29473); assay: NOS inhibition assay (literature protocols), endothelial isoform; assay type: biochemical; conditions: for selectivity e/n: ratio KI eNOS / KI nNOS

| Ki (nNOS) [µM] | potency (in words) (nNOS) | Ki (iNOS) [µM] | selectivity i/n (iNOS) | Ki (eNOS) [µM] | selectivity e/n (eNOS) | SMILES | approximate ring pKa [1] |
| --- | --- | --- | --- | --- | --- | --- | --- |
| – | – | – | – | – | – | NCCn1ccnc1 [Compound 5e] | >7.1 |
| – | – | – | – | – | – | NCCc1c[nH]cn1 [Compound 5a] | 7.1 |
| 0.716 | highly potent | 23.1 | 32.3 | 0.058 | 0.081 | Cc1cc(N)nc(C[C@@H]2CNC[C@@H]2OCCNCCc2nccs2)c1 [Compound 3c] | – |
| – | – | – | – | – | – | Cn1cncc1CCN [Compound 5f] | >7.1 |
| – | – | – | – | – | – | Cn1cnc(CCN)c1 [Compound 5g] | >7.1 |
| – | – | – | – | – | – | NCCc1nccs1 [Compound 5c] | 2.5 |
| 0.044 | moderate potency | 34.4 | 782 | 9.81 | 223 | Cc1cc(N)nc(C[C@H]2CNC[C@H]2OCCNCCc2nccs2)c1 [Compound 4c] | – |
| 1.18 | moderate potency | 15 | 12.7 | 4.23 | 3.58 | Cc1cc(N)nc(C[C@H]2CNC[C@H]2OCCNCCc2c[nH]cn2)c1 [Compound 4a] | – |
